# In PMC12501849, “Design, synthesis and evaluation of arylpurine-based sinefungin mimetics as zika virus methyltransferase inhibitors” (RSC Advances, 2025):
# “Also recorded” adds a separate entry of the source.
# Columns and labels:
# [1] = Cytotoxicity in non-infected SH-SY5Y cells; type: cell-based; settings: human, SH-SY5Y neuroblastoma cells, 50% cytotoxic concentration
# Protocol: (§1) Assessment of the antiviral activity against ZIKV in VeroE6 cells (African green monkey kidney cells; Vero 76, clone E6; ATCC: Cat# CRL-1586) was done as previously described.[35] The antiviral assays in the neuroblastoma SH-SY5Y cells (CRL-2266; ATCC) were conducted as follows: SH-SY5Y cells were seeded in assay medium (MEM supplemented with 2% fetal bovine serum, 2 mM L-glutamine and 0.075% sodium bicarbonate; all from Thermo Fisher Scientific) at a density of 15 000 cells/well in 96-well plates. Cells were incubated overnight at 37 °C and 5% CO2. The next day, a serial dilution of the compounds was added to the cells, followed by inoculation of the cells with ZIKV MR766 (MOI = 0.01). Following a 7-day incubation at 37 °C and 5% CO2, ZIKV-induced cytopathic effect was determined by means of the MTS readout method, analogous to the assay with the VeroE6 cells.[35] The 50% effective concentration (the compound concentration that is required to inhibit virus-induced CPE by 50%; EC50) and the 50% cytotoxic concentration (i.e. the compound concentration that is required to inhibit the cell growth by 50%; CC50) was determined using logarithmic interpolation.
# VeroE6 cells = test: Cytotoxicity in non-infected VeroE6 cells; type: cell-based, African green monkey
# Protocol: as §1
# [2] = Cytotoxicity in non-infected VeroE6 cells; type: cell-based, African green monkey; settings: African green monkey, non-infected, 50% cytotoxic concentration
# Protocol: as §1
# ZIKV MR766 = test: Antiviral assay against ZIKV in SH-SY5Y cells (CPE, MTS readout); type: cell-based, zika virus; settings: for EC50: Zika virus, 168 h, SH-SY5Y cells, ZIKV MR766, MOI 0.01, 7-day incubation
# Protocol: (§2) These compounds were next evaluated for their antiviral effect on ZIKV replication in Vero E6 and SH-SY5Y cells. 7-Deaza-2′-C-methyladenosine (7DMA), a viral polymerase inhibitor,[35] was included as a positive control.
# Besides the standard assays in VeroE6 cells, the compounds were also tested in SH-SY5Y cells. […] Thus, they function as a relevant neuronal cell-based model of ZIKV infection.[38]
# as §1
# DENV3 MTase [3] = biological target: T1, DENV3 MTase (Dengue virus type 3, UniProt P27915); test: Filter binding assay (FBA), DENV3 2′-O-MTase activity; type: biochemical; settings: for inhibition at 50 µM: 2′-O-MTase activity, compound at 50 μM, read-out: Percentage of inhibition of DENV3 MTase; for Effect on 2′-O-MTase activity of DENV3 (in words): tested at 50 μM
# T1 construct: the MTase activity is located at the N-terminal of the viral NS5 protein; made in house
# T1 sequence (P27915 2492-2753): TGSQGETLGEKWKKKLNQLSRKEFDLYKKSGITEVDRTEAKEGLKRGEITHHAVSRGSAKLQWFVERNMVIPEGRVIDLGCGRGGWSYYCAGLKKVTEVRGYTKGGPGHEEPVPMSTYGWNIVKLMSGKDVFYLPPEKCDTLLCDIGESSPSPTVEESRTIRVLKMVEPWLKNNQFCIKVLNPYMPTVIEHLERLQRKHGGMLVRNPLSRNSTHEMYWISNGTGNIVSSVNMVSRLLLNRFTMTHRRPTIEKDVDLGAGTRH
# Protocol: (§3) The synthesized arylpurines were evaluated for their inhibitory activity against the 2′-O-MTase activity of ZIKV and DENV3 MTases by quantification of [^3H]-methyl transfer from the [^3H]-SAM on short synthetic capped RNA (GpppAC4), by using a filter binding assay (FBA).[13,33] The universal methyltransferase inhibitor sinefungin was included as a positive control (Table 1), whose IC50 value against ZIKV MTase has already been reported using a similar assay.[13] We assessed MTase inhibition by testing the synthesized compounds at a concentration of 50 μM.
# (§4) Proteins were produced and purified as previously described.[13] Briefly, the coding sequence of ZIKV NS5 (aa 4-903) and the ZIKV NS5 MTase (aa 4-278) domain were synthesized (Genscript) based on the sequence of the ZIKV strain H/PF/2013 (GenBank accession no. KJ776791.2) and then cloned into a pQE30 (Qiagen) plasmid with an N-terminal His6 tag. The MTase domains (aa 4-278 and aa 1-264) were produced in Escherichia coli T7 Express Iq (New England BioLabs). Cells were grown in Terrific Broth at 37 °C until the optical density at 600 nm (OD600) reached 0.6. Protein expression was then induced by 0.5 mM IPTG (isopropyl-β-D-thiogalactopyranoside) at 17 °C overnight. Bacteria were harvested by centrifugation. The bacterial pellets from a 2-liter bacterial culture were resuspended in 100 ml lysis buffer (50 mM Tris–HCl [pH 8], 300 mM NaCl, 5% glycerol, 0.1% Triton, 10 μg per ml DNase I, 2 tablets of EDTA-free antiprotease cocktail [Roche], 0.25 mg per ml lysozyme). After 30 min of incubation at 4 °C, cells were sonicated and clarified by centrifugation prior to immobilized metal affinity chromatography (IMAC) purification on a 5-mL His prep column (GE Healthcare), with elution in 50 mM Tris–HCl, 300 mM NaCl, and 250 mM imidazole (pH 8.0). The eluted protein was then loaded on a 16/60 Superdex 200 (GE Healthcare) equilibrated in a mixture of 10 mM HEPES, 500 mM NaCl, glycerol 5%, and 1 mM dithiothreitol (DTT [pH 7.5]).
# (§5) The FBA MTase assay was carried out in a reaction mixture [40 mM Tris–HCl (pH 8.0), 1 mM DTT, 1.9 μM SAM, and 0.1 μM ^3H-SAM (PerkinElmer)] in the presence of 0.7 μM GpppAC4 synthetic RNA and the MTase (500 nM), according to the method previously described.[39] Briefly, the MTase was first mixed with the compound suspended in DMSO (5% final DMSO) before the addition of RNA substrate and SAM and then incubated at 30 °C. Reactions mixtures were stopped after 30 min by their 10-fold dilution in ice-cold water. Samples were transferred to diethylaminoethyl (DEAE) filtermat (PerkinElmer) using a Filtermat Harvester (Packard Instruments). The RNA-retaining mats were washed twice with 10 mM ammonium formate pH 8.0, twice with water and once with ethanol. They were soaked with scintillation fluid (PerkinElmer), and ^3H-methyl transfer to the RNA substrates was determined using a Wallac MicroBeta TriLux liquid scintillation counter (PerkinElmer).
# ZIKV = test: Antiviral assay against ZIKV in VeroE6 cells (CPE, MTS readout); type: cell-based, zika virus; settings: for EC50: concentration that protects 50% of the cells from virus-induced cytopathic effect; for Antiviral activity against ZIKV (in words): cell-based assay
# Protocol: as §2, §1
# ZIKV MTase [4] = biological target: T2, ZIKV MTase (Zika virus, UniProt A0A024B7W1); test: Filter binding assay (FBA), ZIKV 2′-O-MTase activity; type: biochemical; settings: for inhibition at 50 µM: 2′-O-MTase activity, compound at 50 μM, read-out: Percentage of inhibition of ZIKV MTase; for Effect on 2′-O-MTase activity of ZIKV (in words): tested at 50 μM
# T2 construct: the ZIKV NS5 MTase (aa 4-278) domain were synthesized (Genscript); His6 (N); made in house; host or cells: Escherichia coli T7 Express Iq
# T2 sequence (A0A024B7W1 2524-2798): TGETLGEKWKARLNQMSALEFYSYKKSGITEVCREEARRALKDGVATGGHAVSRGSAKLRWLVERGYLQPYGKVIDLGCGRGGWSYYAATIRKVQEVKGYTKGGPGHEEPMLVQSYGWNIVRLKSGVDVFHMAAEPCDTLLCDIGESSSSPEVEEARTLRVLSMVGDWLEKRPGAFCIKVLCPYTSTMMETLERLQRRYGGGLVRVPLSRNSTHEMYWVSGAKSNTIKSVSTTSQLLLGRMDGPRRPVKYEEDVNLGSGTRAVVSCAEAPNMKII
# Protocol: as §3, §4, §5
# [5] = Stability towards spontaneous cyclization in PBS : DMSO followed by HPLC; type: physicochemical; settings: PBS : DMSO (95 : 5), HPLC over a 24-hour period
# Protocol: Then, compound 28 was treated with TFA at 70 °C to remove the tert-butyl ester and the p-methoxybenzyl group. Analysis of the reaction by HPLC/MS after 1 h indicated a mixture of two compounds with m/z = 695 and m/z = 575, that might correspond to cyclized products with and without the p-methoxybenzyl group at position 6 (see Fig. S3 at the SI). […] In exploring alternative methods for removing the PMB group, we came across a report by Sako et al., which described the oxidative debenzylation of 6-N-benzyladenosines under neutral pH conditions.[32] Since our compounds are more lipophilic than the nucleosides described by […], we changed the PBS : CH3CN ratio from 2 : 1, as described, to 1 : 1 to favor the solubility of our compounds. Additionally, we used microwave irradiation to shorten the reaction times. Thus, treatment of 27 with […] in PBS : CH3CN (1 : 1) at 80 °C for 45 min under MW irradiation led to the removal of the p-methoxybenzyl group, as detected by HPLC/MS. Further treatment of the reaction product with piperidine afforded 29 (25% yield over the 2 steps). A similar reaction sequence applied to 28 led to compound 30 (21% yield). […] Finally, treatment of 29 and 30 with TFA in DCM at rt afforded compounds 31 and 32 in 73% and 62% yields, respectively. To rule out the possibility of spontaneous cyclization following removal of both protecting groups from the amino acid, compounds 21, 31 and 32 were dissolved in a PBS : DMSO (95 : 5) mixture.
# [6] = set-up: method as in PMID 30170321; settings: cited from earlier work
# ZIKV MTase [7] = biological target: T2, ZIKV MTase; set-up: method as in PMID 28031359; settings: cited from earlier work
# DENV3 MTase [8] = biological target: T1, DENV3 MTase; set-up: method as in PMID 28031359; settings: cited from earlier work
# [9] = Zika virus, Vero C1008, VeroE6 cells
SMILES,CC50 at 7 days [1] [µM],CC50 relative to EC50 (fold higher) (VeroE6 cells) [fold],CC50 [2] [µM],EC50 (ZIKV MR766) [µM],Antiviral activity against ZIKV in SH-SY5Y cells (in words) (ZIKV MR766; neuroblastoma SH-SY5Y cells),inhibition at 50 µM (DENV3 MTase [3]) [%],Effect on 2′-O-MTase activity of DENV3 (in words) (DENV3 MTase [3]),EC50 (ZIKV; VeroE6 cells) [µM],EC50 (ZIKV; [9]) [µM],"IC50 (ZIKV; Zika virus, Vero C1008, Vero E6 cells, read-out: IC50 (antiviral activity in cell culture)) [µM]",Antiviral activity against ZIKV (in words) (ZIKV),inhibition at 50 µM (ZIKV MTase [4]) [%],Effect on 2′-O-MTase activity of ZIKV (in words) (ZIKV MTase [4]),Stability (no spontaneous cyclization) [5],Antiviral activity in cell culture (in words) [6],ZIKV MTase inhibition (in words) (ZIKV MTase [7]),DENV MTase inhibition (in words) (DENV3 MTase [8])
"Cc1ncnc2c1ccn2-c1cccc(N(CC[C@H](N)C(N)=O)CCC(C)(C)C)c1 [Compound 18, (S)-2-Amino-4-((3,3-dimethylbutyl)(3-(4-methyl-7H-pyrrolo[2,3-d]pyrimidin-7-yl)phenyl)amino) butanamide]",61,~3,66.2 ± 3.9,> 100,not confirmed,10.1,modest inhibition,27.2 ± 0.2,27,27.2 ± 0.2,modest antiviral activity,10.8,inhibited; also recorded: modest inhibition,–,–,–,–
"Cc1ncnc2c1ccn2-c1cccc(NC(=O)C[C@H](N)C(=O)O)c1 [Compound 21, N ^4-(3-(4-Methyl-7H-pyrrolo[2,3-d]pyrimidin-7-yl)phenyl)-L-asparagine]",> 100,–,> 100,> 100,–,0,no effect,–,> 100,–,–,0,no effect,remained intact,–,–,–
"Nc1ncnc2c1ncn2-c1cccc(NC(=O)C[C@H](N)C(=O)O)c1 [Compound 31, N ^4-(3-(6-Amino-9H-purin-9-yl)phenyl)-L-asparagine]",> 100,–,> 100,> 100,–,~20,some inhibition,–,> 100,–,no antiviral activity,~20,inhibited; also recorded: some inhibition,remained intact,–,–,–
"COc1ccc(NC(=O)C[C@H](N)C(=O)O)cc1-n1cnc2c(N)ncnc21 [Compound 32, N ^4-(3-(6-Amino-9H-purin-9-yl)-4-methoxyphenyl)-L-asparagine]",> 100,–,> 100,> 100,–,0,no effect,–,> 100,–,–,0,no effect,remained intact,–,–,–
Nc1ncnc2c1ncn2[C@@H]1O[C@H](C[C@@H](N)CC[C@H](N)C(=O)O)[C@@H](O)[C@H]1O [Sinefungin],–,–,–,–,–,96.8,–,–,–,–,–,97.9,–,–,lack of antiviral activity,potent,potent
